This note sets out measurements from ChEMBL document CHEMBL5370583, “Cytotoxic Ergosteroids from a Strain of the Fungus Talaromyces adpressus” (J Nat Prod, 2023).

The subject of test [1] is SU-DHL-2. The experiment in a line: Cytotoxicity against human SUDHL2 cells assessed as cell growth inhibition by MTT assay. The format is functional, cell-based. A general note: Tetrazolium assays rely on reduction of a dye to a coloured formazan, in cell work by metabolically active cells.
A short description of test [2]: Immunosuppressive activity in C57BL/6J mouse B-lymphocyte assessed as inhibition of LPS-induced cell proliferation at 0.3125 to 40 uM incubated for 72 hrs by flow cytometry analysis. The format is functional, cell-based. To be noted: dose 0.3125-40 µM.
A further test concerns A549. The experiment in a line: Cytotoxicity against human A549 cells assessed as cell growth inhibition by MTT assay. The class given is functional, cell-based.
A short description of test [3]: Cytotoxicity against human […] cells assessed as cell growth inhibition by MTT assay. The class given is functional, cell-based.
Another test relates to HL-60. Briefly: Cytotoxicity against human HL-60 cells assessed as cell growth inhibition by MTT assay. The class given is functional, cell-based.
The subject of a further test is HepG2. The experiment in a line: Cytotoxicity against human HepG2 cells assessed as cell growth inhibition by MTT assay. The class given is functional, cell-based.
The subject of the next test is B-cell line. Briefly: Immunosuppressive activity in C57BL/6J mouse B-lymphocyte assessed as inhibition of LPS-induced cell proliferation incubated for 72 hrs by flow cytometry analysis. The class given is functional, cell-based. (Flow cytometry measures light scatter and fluorescence of single cells or particles in a stream.)
The test system of test [4] is SU-DHL-2. Briefly: Induction of apoptosis in human SUDHL2 cells assessed as late apoptotic cells at 10 uM measured by Annexin V-FITC/PI staining based flow cytometry assay (reference value: 3.10%). The class given is functional.
Test [5] has as its system SU-DHL-2. Briefly: Induction of apoptosis in human SUDHL2 cells assessed as early apoptotic cells at 2 uM measured by Annexin V-FITC/PI staining based flow cytometry assay (reference value: 4.52%). The format is functional.
In test [6] the test system is SU-DHL-2. The experiment in a line: Induction of apoptosis in human SUDHL2 cells assessed as late apoptotic cells at 2 uM measured by Annexin V-FITC/PI staining based flow cytometry assay (reference value: 3.10%). The class given is functional.
The test system of test [7] is SU-DHL-2. Briefly: Induction of apoptosis in human SUDHL2 cells assessed as viable cells at 10 uM measured by Annexin V-FITC/PI staining based flow cytometry assay (reference value: 92.2%). The class given is functional. Particulars: read-out: Activity.
The test system of test [8] is SU-DHL-2. Briefly: Induction of apoptosis in human SUDHL2 cells assessed as necrotic cells at 2 uM measured by Annexin V-FITC/PI staining based flow cytometry assay (reference value: 0.23%). The class given is functional.
The test system of test [9] is SU-DHL-2. The experiment in a line: Induction of apoptosis in human SUDHL2 cells assessed as necrotic cells at 10 uM measured by Annexin V-FITC/PI staining based flow cytometry assay (reference value: 0.23%). The format is functional.
Test [10] relates to SU-DHL-2. Briefly: Induction of apoptosis in human SUDHL2 cells assessed as early apoptotic cells at 10 uM measured by Annexin V-FITC/PI staining based flow cytometry assay (reference value: 4.52%). The format is functional.
Test [11] deals with SU-DHL-2. The experiment in a line: Induction of apoptosis in human SUDHL2 cells assessed as viable cells at 2 uM measured by Annexin V-FITC/PI staining based flow cytometry assay (reference value: 92.2%). The class given is functional. Particulars: read-out: Activity.

Activity calls are given as the source filed them. The calls are words filed in the database; no cut-off is given here. Some results are limits rather than exact numbers.

As to `CC(C)[C@@H](C)/C=C/[C@@H](C)[C@H]1CCC(=O)[C@]23CC(=O)C4=CC(=O)CC[C@]4(C)[C@H]2CC[C@]13C` [DANKASTERONE A], the IC50 (commonly the concentration needed to halve the response being measured) with SU-DHL-2 [1] is 6.6 µM; in the test with A549 it was 25 µM; in test [3] it was > 40 µM; in the test with HL-60, 3.8 µM; in the test on HepG2, 12 µM. Moreover, the inhibition entry in [2] was “inactive”.

Take `COc1cc([C@@H]2c3cc4c(cc3[C@@H](O[C@@H]3O[C@@H]5CO[C@@H](C)O[C@H]5[C@H](O)[C@H]3O)[C@H]3COC(=O)[C@H]23)OCO4)cc(OC)c1O` [ETOPOSIDE]: the IC50 was found to be 2.1 µM with SU-DHL-2 [1]; 10 µM in the test on A549; 52 µM in [3]; 2.1 µM with HL-60; 21 µM in the test on HepG2.

Turning to `CC(C)[C@@H](C)/C=C/[C@@H](C)[C@H]1CC(=O)C2=C3[C@H](O)[C@H]4O[C@]45C[C@@H](O)CC[C@]5(C)[C@H]3CC[C@@]21C`, the inhibition entry in test [2] was “inactive”.

Take `CC(=O)O[C@@H]1C[C@]2(C)[C@@H]([C@H](C)/C=C/[C@H](C)C(C)(C)O)CC[C@H]2C2=CC(=O)[C@H]3CC(=O)CC[C@]3(C)[C@H]21`: the IC50 was 19 µM with SU-DHL-2 [1]; 22 µM in the test with A549; 9.2 µM in [3]; 11 µM in the test on HL-60; 25 µM with HepG2. Besides, in test [2], the inhibition result is “inactive”.

As for `C=C(CC[C@@H](C(=O)O)[C@H]1CC[C@H]2C3=C[C@@H](O)[C@@]45O[C@@H]4C(=O)C=C[C@]5(C)[C@H]3CC[C@]12C)C(C)C`, the IC50 in the test with SU-DHL-2 [1] was 6.9 µM; in the test with A549, > 40 µM; in [3], 13 µM; in the test on HL-60, 7.3 µM; with HepG2 it was 24 µM. Moreover, the inhibition entry in test [2] was “inactive”.

For `CC(C)[C@@H](C)/C=C/[C@@H](C)[C@H]1CC[C@]2(O)C3=CC(=O)C4=CC(=O)CC[C@]4(C)[C@@]3(O)CC[C@]12C`, the IC50 in the test on SU-DHL-2 [1] turned out to be 7.5 µM; with A549, 31 µM; in test [3] it was 30 µM; in the test on HL-60 it was 8.8 µM; in the test with HepG2 it was 19 µM. Besides, the inhibition entry in test [2] is “inactive”.

Consider `COC(=O)[C@@]12CC[C@@]3(C)[C@]1(O)C(=O)C=C1[C@]4(O)CC[C@H]([C@H](C)/C=C/[C@H](C)C(C)C)[C@@]4(C)CC[C@@]13OO2`, for which the IC50 (in the test with SU-DHL-2 [1]; in the test on A549; in [3]; with HL-60; in the test on HepG2) was > 40 µM each time. Further, the inhibition result in [2] was “inactive”.

For the compound `COC(=O)[C@@]12CC[C@@]3(C)[C@]1(O)C(=O)C=C1[C@@]4(O)CC[C@H]([C@H](C)/C=C/[C@H](C)C(C)C)[C@@]4(C)CC[C@@]13OO2`, the IC50 with SU-DHL-2 [1] was > 40 µM; in the test with A549 it was > 40 µM; in test [3], > 40 µM; in the test on HL-60, 32 µM; in the test with HepG2 it was > 40 µM. For the same compound, in test [2], the inhibition entry was “inactive”.

As to `CC(C)[C@@H](C)/C=C/[C@@H](C)[C@H]1CC[C@@]2(O)C3=CC(=O)C4=CC(=O)CC[C@]4(C)[C@@]3(O)CC[C@]12C`, the inhibition result in test [2] is “inactive”.

Consider `COC1(OC)CC[C@@]2(C)[C@H](C1)C(=O)C=C1[C@@H]2[C@H](OC(C)=O)C[C@]2(C)[C@@H]([C@H](C)/C=C/C(C)C(C)(C)O)CC[C@@H]12` (single isomer, unassigned), for which the IC50 was found to be 25 µM in the test on SU-DHL-2 [1]; 13 µM with A549; 11 µM in [3]; 8.3 µM in the test on HL-60; 29 µM in the test with HepG2. Moreover, the inhibition result in [2] is “inactive”.

On to `CO[C@@H]1C=C2C=CC3=C4C(=O)C[C@H]([C@H](C)/C=C/[C@H](C)C(C)C)[C@@]4(C)CC[C@]3(O)[C@@]2(C)CC1`, for which the IC50 in the test with SU-DHL-2 [1] was > 40 µM; in the test on A549 it was > 40 µM; in [3] it was > 40 µM; in the test on HL-60, 25 µM; in the test with HepG2, > 40 µM. The inhibition result in [2] was “inactive”.

On to `CC(C)[C@@H](C)/C=C/[C@@H](C)[C@H]1CC(=O)C2=C3[C@H](O)[C@H]4O[C@]45C[C@@H](O)CC[C@]5(C)[C@@]3(O)CC[C@@]21C`, for which, in test [2], the inhibition entry was “inactive”.

Take `C=C(CC[C@@H](C(=O)O)[C@H]1CC[C@H]2C3=C[C@@H](O)[C@@]45O[C@@H]4[C@H](O)[C@@H]4O[C@@H]4[C@]5(C)[C@H]3CC[C@]12C)C(C)C`: the concentration for half-maximal inhibition (IC50) (with SU-DHL-2 [1]; in the test with A549; in test [3]; with HL-60; in the test on HepG2) was > 40 µM throughout. Besides, in test [2], the inhibition result is “inactive”.

As to `CC(C)[C@@H](C)/C=C/[C@@H](C)[C@H]1C[C@@H](O)C2=C3C=CC4=CC(=O)CC[C@]4(C)[C@@]3(O)CC[C@@]21C`, the IC50 was > 40 µM in the test with SU-DHL-2 [1]; 8.6 µM in the test with B-cell line; > 40 µM with A549; > 40 µM in [3]; > 40 µM in the test on HL-60; > 40 µM in the test on HepG2.

Turning to `CC(C)[C@@H](C)/C=C/[C@@H](C)[C@H]1CCC(=O)[C@]23CC(=O)[C@@H]4CC(=O)CC[C@]4(C)[C@H]2CC[C@]13C`, in test [2], the inhibition entry was “inactive”.

As for `CO[C@@H]1C=C2[C@@H]3CC[C@H]([C@H](C)/C=C/[C@H](C)C(C)C)[C@@]3(C)C[C@H]3O[C@@]23[C@@]2(C)CC[C@H](O)C[C@]12O`, the IC50 in the test on SU-DHL-2 [1] worked out at 0.4 µM; in the test on A549, 18 µM; in test [3], 14 µM; with HL-60, 6.1 µM; with HepG2, 24 µM. In addition, the Activity was found to be 54% in the test with SU-DHL-2 [4]; 6.67% in the test on SU-DHL-2 [5]; 14.3% with SU-DHL-2 [6]; 0.87% in the test on SU-DHL-2 [8]; 4.02% with SU-DHL-2 [9]; 15% with SU-DHL-2 [10]. Besides, the inhibition entry in test [2] is “inactive”. Also, the viability at 10 µM in the test with SU-DHL-2 [7] amounted to 26.9%. Moreover, the viability at 2 µM in the test with SU-DHL-2 [11] is 78.2%.

Turning to `CC(C)[C@@H](C)/C=C/[C@@H](C)[C@H]1CC[C@]2(O)C3=CC(=O)[C@@H]4[C@@]5(O)CC[C@]4(C)[C@]3(CC[C@]12C)OC5=O`, in [2], the inhibition entry was “inactive”.
